According to patent publication US20260008783A1, “MODULATORS OF FSHR AND USES THEREOF” (Celmatix Inc., priority 2022, published 2026):

Biological target: T1, Follicle Stimulating Hormone Receptor (FSHR) (Homo sapiens, UniProt P23945)
T1 construct: HA (N); expressed in transfected cells; host or cells: CHO-K1, transient transfection, pHM6 vector (CMV promoter)
T1 sequence (P23945 18-695): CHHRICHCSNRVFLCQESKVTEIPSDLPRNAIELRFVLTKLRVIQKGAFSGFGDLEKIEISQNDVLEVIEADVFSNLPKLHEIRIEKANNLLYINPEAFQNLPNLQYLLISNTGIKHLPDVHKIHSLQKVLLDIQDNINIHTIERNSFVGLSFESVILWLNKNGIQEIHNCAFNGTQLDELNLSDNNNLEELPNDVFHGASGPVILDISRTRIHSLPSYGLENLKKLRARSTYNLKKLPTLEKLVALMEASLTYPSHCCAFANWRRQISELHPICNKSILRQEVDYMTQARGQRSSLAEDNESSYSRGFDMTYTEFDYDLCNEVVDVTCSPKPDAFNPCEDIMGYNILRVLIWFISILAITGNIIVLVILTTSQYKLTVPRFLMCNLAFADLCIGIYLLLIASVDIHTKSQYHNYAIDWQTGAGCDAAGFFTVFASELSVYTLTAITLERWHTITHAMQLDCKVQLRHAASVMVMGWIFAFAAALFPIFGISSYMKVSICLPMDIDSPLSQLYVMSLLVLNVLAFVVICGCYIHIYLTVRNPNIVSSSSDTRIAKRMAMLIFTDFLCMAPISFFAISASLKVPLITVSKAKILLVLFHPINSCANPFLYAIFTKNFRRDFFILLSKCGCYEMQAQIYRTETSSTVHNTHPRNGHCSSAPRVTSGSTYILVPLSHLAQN
Assay: HTRF cAMP agonist assay, FSHR, transiently transfected CHO-K1 cells
Assay type: cell-based
Conditions: CHO-K1 cells transiently expressing human FSHR, read-out: IC50 FSHR LANCE CAMP

Row | IC50 [nM] | SMILES
1 | 5380 | O=C(c1nn(-c2ccccn2)c2c1CCc1ccc(-c3cccnc3)cc1-2)N1CCNC(=O)C12CC2 [Compound 8-81]
2 | 79.8 | COc1cc2c(cc1-c1cncc(C(N)=O)c1)-c1c(c(C(=O)N3CCNC(=O)C3)nn1-c1cc(Cl)cc(Cl)c1)CC2 [Compound 8-82]
3 | 38.9 | COc1cc2c(cc1-c1cncc(C(N)=O)c1)-c1c(c(C(=O)N3CCCC(=O)C3)nn1-c1cc(Cl)cc(Cl)c1)CC2 [Compound 8-83]
4 | 32.4 | CCC1C(=O)NCCN1C(=O)c1nn(-c2cc(Cl)cc(Cl)c2)c2c1CCc1cc(OC)c(-c3cncc(C(N)=O)c3)cc1-2 (stereo not drawn) [Compound 8-84]
5 | 24.5 | COc1cc2c(cc1-c1cncc(C(N)=O)c1)-c1c(c(C(=O)N3CC(=O)NCC3(C)C)nn1-c1cc(Cl)cc(Cl)c1)CC2 [Compound 8-86]
6 | 8.14 | COc1cc2c(cc1-c1cncc(C(N)=O)c1)-c1c(c(C(=O)N3[C@@H](C)CNC(=O)[C@@H]3C)nn1-c1cc(Cl)cc(Cl)c1)CC2 [Compound 8-87]
7 | 18.9 | COc1cc2c(cc1-c1cncc(C(N)=O)c1)-c1c(c(C(=O)N3CCNC(=O)C34CC4)nn1-c1cc(Cl)cc(Cl)c1)CC2 [Compound 8-89]
8 | 2.15 | COc1cc2c(cc1-c1cncc(C(N)=O)c1)-c1c(c(C(=O)N3CCC(O)C3(C)C)nn1-c1cc(Cl)cc(Cl)c1)CC2 (stereo not drawn) [Compound 8-90A]
9 | 6.69 | COc1cc2c(cc1-c1cncc(C(N)=O)c1)-c1c(c(C(=O)N3CCC(=O)C3(C)C)nn1-c1cc(Cl)cc(Cl)c1)CC2 [Compound 8-90]
10 | 1790 | COc1cc2c(cc1-c1cncc(C(N)=O)c1)-c1[nH]nc(C(=O)N3CCOCC3(C)C)c1CC2 [Compound 9-01]
11 | 3.81 | CC1(C)COCCN1C(=O)c1nn(-c2cc(Cl)cc(Cl)c2)c2c1CCc1ccc(-c3cncc(C(N)=O)c3)cc1-2 [Compound 9-02]
12 | 6.99 | CC1(C)COCCN1C(=O)c1nn(-c2cc(Cl)cc(Cl)c2)c2c1CCc1cc(O)c(-c3cncc(C(N)=O)c3)cc1-2 [Compound 9-04, 5-[1-(3,5-dichlorophenyl)-3-(3,3-dimethylmorpholine-4-carbonyl)-7-hydroxy-4,5-dihydrobenzo[g]indazol-8-yl]pyridine-3-carboxamide]
13 | 45.2 | COc1cc2c(cc1-c1cncc(C(N)=O)c1)-c1c(c(C(=O)N(C)C)nn1-c1cc(Cl)cc(Cl)c1)CC2 [Compound 9-05]
14 | 0.976 | COc1cc2c(cc1-c1cncc(C(N)=O)c1)-c1c(c(CN3CCOCC3(C)C)nn1-c1cc(Cl)cc(Cl)c1)CC2 [Compound 9-06]
15 | 5.98 | COc1cc2c(cc1-c1cccnc1)-c1c(c(C(=O)N3CCOCC3(C)C)nn1-c1cc(Cl)cc(Cl)c1)CC2 [Compound 9-07]
16 | 2480 | COc1ccc2c(c1)CCc1c(C(=O)N3CCOCC3(C)C)nn(-c3cc(Cl)cc(Cl)c3)c1-2 [Compound 9-08A]
17 | 16.2 | COc1cc2c(cc1OC(C)C)-c1c(c(C(=O)N3CCOCC3(C)C)nn1-c1cc(Cl)cc(Cl)c1)CC2 [Compound 9-08]
18 | 830 | CCn1nc(C(=O)N2CCOCC2(C)C)c2c1-c1cc(-c3cncc(C(N)=O)c3)c(OC)cc1CC2 [Compound 9-11]
19 | 701 | COc1cc2c(cc1-c1cncc(C(N)=O)c1)-c1c(c(C(=O)N3CCOCC3(C)C)nn1C(C)C)CC2 [Compound 9-12]
20 | 92.4 | CCCn1nc(C(=O)N2CCOCC2(C)C)c2c1-c1cc(-c3cncc(C(N)=O)c3)c(OC)cc1CC2 [Compound 9-13, 5-[3-(3,3-dimethylmorpholine-4-carbonyl)-7-methoxy-1-propyl-4,5-dihydrobenzo[g]indazol-8-yl]pyridine-3-carboxamide]
21 | 14.3 | COc1cc2c(cc1-c1cncc(C(N)=O)c1)-c1c(c(C(=O)N3CCOCC3(C)C)nn1CC(C)C)CC2 [Compound 9-14]
22 | 42 | CCCCn1nc(C(=O)N2CCOCC2(C)C)c2c1-c1cc(-c3cncc(C(N)=O)c3)c(OC)cc1CC2 [Compound 9-15, 5-[1-butyl-3-(3,3-dimethylmorpholine-4-carbonyl)-7-methoxy-4,5-dihydrobenzo[g]indazol-8-yl]pyridine-3-carboxamide]
23 | 94.1 | COc1cc2c(cc1-c1cncc(C(N)=O)c1)-c1c(c(C(=O)N3CCOCC3(C)C)nn1C1CCCCC1)CC2 [Compound 9-16]

Row | IC50 [nM] | SMILES
24 | 5.64 | COc1cc2c(cc1-c1cncc(C(N)=O)c1)-c1c(c(C(=O)N3CCOCC3(C)C)nn1-c1ccccc1)CC2 [Compound 9-17]
25 | 0.615 | COc1cc2c(cc1-c1cncc(C(N)=O)c1)-c1c(c(C(=O)N3CCOCC3(C)C)nn1-c1cc(F)cc(F)c1)CC2 [Compound 9-18]
26 | 3.85 | COc1cc(Cl)cc(-n2nc(C(=O)N3CCOCC3(C)C)c3c2-c2cc(-c4cncc(C(N)=O)c4)c(OC)cc2CC3)c1 [Compound 9-20]
27 | 1.29 | COc1cc2c(cc1-c1cncc(C(N)=O)c1)-c1c(c(C(=O)N3CCOCC3(C)C)nn1-c1ccsc1)CC2 [Compound 9-21, 5-[3-(3,3-dimethylmorpholine-4-carbonyl)-7-methoxy-1-(3-thienyl)-4,5-dihydrobenzo[g]indazol-8-yl]pyridine-3-carboxamide]
28 | 15500 | COc1cc(Cl)cc(-n2ncc3c2-c2cc(-c4cncc(C(N)=O)c4)c(OC)cc2CC3)c1 [Compound 9-24]
29 | 5.06 | COc1cc2c(cc1-c1cncc(C(N)=O)c1)-c1c(c(C(=O)N3CCOCC3(C)C)nn1-c1ccccn1)CC2 [Compound 10-01, 5-[3-(3,3-dimethylmorpholine-4-carbonyl)-7-methoxy-1-(2-pyridyl)-4,5-dihydrobenzo[g]indazol-8-yl]pyridine-3-carboxamide]
30 | 40.1 | COc1cc2c(cc1-c1cncc(C(N)=O)c1)-c1c(c(C(=O)N3CCOCC3(C)C)nn1-c1cccnc1)CC2 [Compound 10-02]
31 | 190 | COc1cc2c(cc1-c1cncc(C(N)=O)c1)-c1c(c(C(=O)N3CCOCC3(C)C)nn1-c1ccncc1)CC2 [Compound 10-03]
32 | 67.4 | COc1cc2c(cc1-c1cncc(C(N)=O)c1)-c1c(c(C(=O)N3CCOCC3(C)C)nn1-c1cnccn1)CC2 [Compound 10-06]
33 | 22.5 | COc1cc2c(cc1-c1cncc(C(N)=O)c1)-c1c(c(C(=O)N3CCOCC3(C)C)nn1-c1cccnn1)CC2 [Compound 10-07]
34 | 400 | COc1cc2c(cc1-c1cncc(C(N)=O)c1)-c1c(c(C(=O)N3CCOCC3(C)C)nn1-c1ncccn1)CC2 [Compound 10-08]
35 | 165 | COc1cc2c(cc1-c1cncc(C(N)=O)c1)-c1c(c(C(=O)N3CCOCC3(C)C)nn1-c1cncnc1)CC2 [Compound 10-09]
36 | 14.8 | COc1cc2c(cc1-c1cncc(C(N)=O)c1)-c1c(c(C(=O)N3CCOCC3(C)C)nn1-c1ccncn1)CC2 [Compound 10-10]
37 | 50.1 | COC(=O)c1cc(OC)nc(-c2cc3c(cc2OC)CCc2c(C(=O)N(C)C(C)(C)C)nn(-c4cc(Cl)cc(Cl)c4)c2-3)c1 [Compound 11-01A, methyl2-[3-[tert-butyl(methyl)carbamoyl]-1-(3,5-dichlorophenyl)-7-methoxy-4,5-dihydrobenzo[g]indazol-8-yl]-6-methoxy-pyridine-4-carboxylate]
38 | 12.5 | COc1cc(C(N)=O)cc(-c2cc3c(cc2OC)CCc2c(C(=O)N(C)C(C)(C)C)nn(-c4cc(Cl)cc(Cl)c4)c2-3)n1 [Compound 11-01]
39 | 42 | COc1cc(C(N)=O)cc(-c2cc3c(cc2OC)COc2c(C(=O)N(C)C(C)(C)C)nn(-c4cc(Cl)cc(Cl)c4)c2-3)n1 [Compound 11-02, N-tert-butyl-8-(4-carbamoyl-6-methoxy-2-pyridyl)-1-(3,5-dichlorophenyl)-7-methoxy-N-methyl-5H-isochromeno[4,3-c]pyrazole-3-carboxamide]
40 | 75 | COc1cc(C(N)=O)cc(-c2cc3c(cc2OC)CSc2c(C(=O)N(C)C(C)(C)C)nn(-c4cc(Cl)cc(Cl)c4)c2-3)n1 [Compound 11-03, N-tert-butyl-8-(4-carbamoyl-6-methoxy-2-pyridyl)-1-(3,5-dichlorophenyl)-7-methoxy-N-methyl-5H-isothiochromeno[4,3-c]pyrazole-3-carboxamide]
41 | 14.8 | COc1cc2c(cc1-c1cncc(C(N)=O)c1)-c1c(c(C(=O)N3[C@H](C)CN(C)C[C@@H]3C)nn1-c1cc(Cl)cc(Cl)c1)CC2 [Compound 12-01]
42 | 5.07 | COc1cc2c(cc1-c1cncc(C(N)=O)c1)-c1c(c(C(=O)N3[C@H](C)CNC[C@@H]3C)nn1-c1cc(Cl)cc(Cl)c1)OC2 [Compound 12-02, 5-[1-(3,5-dichlorophenyl)-3-[(2R,6S)-2,6-dimethylpiperazine-1-carbonyl]-7-methoxy-5H-isochromeno[4,3-c]pyrazol-8-yl]pyridine-3-carboxamide]
43 | 5.09 | COc1cc2c(cc1-c1cncc(C(N)=O)c1)-c1c(c(C(=O)N3COCC3(C)C)nn1-c1cc(Cl)cc(Cl)c1)OC2 [Compound 12-04]
44 | 15.4 | COc1cc2c(cc1-c1cncc(C(N)=O)c1)-c1c(c(C(=O)N3[C@H](C)CNC[C@@H]3C)nn1-c1cc(Cl)cc(Cl)c1)S(=O)(=O)C2 [Compound 12-05]
45 | 21.2 | COc1cc2c(cc1-c1cncc(C(N)=O)c1)-c1c(c(C(=O)N3COCC3(C)C)nn1-c1cc(Cl)cc(Cl)c1)S(=O)(=O)C2 [Compound 12-07]
